Test results from patent publication US6900238B1, “HIV protease inhibitors” (The Scripps Research Institute, priority 1995, dated 2005).
Like-named read-outs stand apart in the source and are kept apart here. Peptide text beside a SMILES is read from it. * marks the point of attachment. Cbz = O=C(OCc1ccccc1)*; NHtBu = CC(C)(C)N*

Tests used:
FIV protease = target: T1, FIV protease (Feline immunodeficiency virus, UniProt P16088); assay: FIV protease inhibition, peptide substrate cleavage by HPLC (IC50 and Ki); type: biochemical
T1 construct: an 18.6 kDa precursor, which auto-processed to a 13.2 kDa FIV PR plus N- and C-terminal fragments; made in house; host or cells: E. coli BL21.DE3, lys S (pT7-7 vector)
Description: For determination of K1 and IC50 for FIV protease, 0.125 μg of the enzyme was added to a solution (100 μL final volume) containing inhibitor, 560 μM peptide substrate (sequence Gly-Lys-Glu-Glu-Gly-Pro-Pro-Gln-Ala-Tyr-Pro-Ile-Gln-Thr-Val-Asn-Gly) and 2% dimethyl sulfoxide in a 1:3 mixture of assay buffer (as above) and 4M NaClaq. solution. The solution was mixed and incubated for 10 minutes at 37° C. and the reaction quenched by addition of 8 M guanidine HCl solution containing 0.2 M sodium acetate at pH 4.2 (100 μL). The cleavage products and substrate were separated by reverse phase HPLC. Absorbance was measured at 215 nm, peak areas were determined and percent conversion to product was calculated using relative peak areas. The data were plotted as 1/V (V=rate substrate is cleaved in nmol/min) against inhibitor concentration and the—Ki determined as the point at which the resulting line intersects with 1/Vmax (Vmax=6.85 nmol/min). IC50 was determined as the inhibitor concentration at 50% inhibition. Vmax (6.85±0.7 nmol min^−1) and Km (707±70 μM) for FIV protease were determined from a plot of 1/V (V=rate in nmol/min) against 1/[S] ([S]=substrate concentration in […]). The data used was generated similarly to that for Ki with the following modifications. The substrate concentrations used were 560, 448, 336, 224, 111 and 56 μM, in the absence of inhibitor.
Purification of FIV protease: A 503 base pair Eco Rl-Bam Hl fragment containing the coding sequence of FIV protease was cloned from FIV-34TF10 (Talbott et. al. Proc. Natl. Acad. Sci. USA 86 1989, 5743) into the pT7-7 vector (Tabor et. al. Proc. Natl. Acad. Sci USA 82 1985, 1074). The 5′ end of the insert was modified by the addition of an Ndel adaptor, which provided the proper reading frame with initiation of translation from the methionine encoded in the latter site. […] The construct was transformed into E. coli strain BL21.DE3, lys S (Studier et. al. Meth. Enzymol. 1990, 185, 60) and overnight cultures were used to inoculate 15 liter fermentations, performed using Circlegrow medium (Bio 101) plus […] ampicillin, 20 μM chloramphenicol, at 37° C. The cells were allowed to reach mid-log phase, then the temperature was reduced to 24° C. and IPTG (isopropylB-thiogalactopyranoside) was added to a final concentration of 1 mM. The fermentation was allowed to proceed for 16 hours, at which time the cells were harvested by centrifugation and frozen at −70° C. in 100 g aliquots for future use.
Cells (100 g) were lysed by addition of 600 mL, 50 mM Tris-HCl, pH 8, 5 mM EDTA and 2 mM 2-mercaptoethanol to the frozen pellet. The cells lysed upon thawing and the viscous mixture was homogenized at 4° C. for 2 min in a Waring blender. The sample was centrifuged at 8,000×g for 20 min and the pellet discarded. […]

HIV-1 protease [1] = target: T2, HIV-1 protease (Human immunodeficiency virus type 1 group M subtype B, UniProt P03369); assay: HIV protease inhibition, fluorogenic peptide substrate cleavage (IC50 and Ki); type: biochemical; conditions: for IC50: read-out: HIV PR IC50; for Ki: read-out: HIV PR Ki
T2 construct: HIV PR is a 99 amino acid aspartyl protease which functions as a homodimer; made in house; host or cells: no host: total chemical synthesis
Description: The solution was mixed and incubated over 5 minutes during which time the rate of substrate cleavage was monitored by continuously recording the change in fluorescence of the assay solution. An excitation filter of 325 nm, and an emission filter of 420 nm were used.
Determination of Ki for HIV protease was performed similarly with the following modifications. The substrate concentrations used were 57, 43, 28 and 14 μM. All other concentrations were as above. The curve fit for the data was determined and the subsequent Ki derived using a computer program based on the equation of Morrison et. al. BioChim. Biophys. ACTA 1969, 185, 269, for tight binding inhibitors.
The synthetic HIV-protease containing a thioester linkage available from CalBiochem (San Diego) can also be used. The enzyme activity was assayed with the fluorogenic substrate Ac-Thr-Ile-Nle-Phe(P—NO2)-Gln-Arg-NH2 (from CalBiochem, San Diego) according to the procedure described in the literature. Inhibition analysis was performed in the presence of the inhibitor and expressed with IC50 (the concentration of inhibitor that causes 50% inhibition of the enzyme activity).

[2] = 13C NMR study of hydration of the ketone moiety in the presence of water; type: physicochemical; conditions: deuterated DMSO/D2O (5:1), incubation for 24 hours
Excerpt: The ketone moiety of the α-keto amide 2 is disclosed to be hydrated and is hydrogen bonding in a similar manner to that of compound 23.

HIV-1 protease [3] = target: T2, HIV-1 protease; conditions: known HIV PR inhibitor; cited from earlier work

CC(C)(C)NC(=O)[C@@H]1CCCN1C(=O)C(=O)C(Cc1ccccc1)NC(=O)OCc1ccccc1 (mixture of isomers) [Compound 2, (3S) and (3R) 3-(N-Benzyloxycarbonyl)amino-2-keto-4-phenylbutyryl-L-prolyl-tert-butyl Amide]
inhibitory effect against FIV PR (FIV protease; added in concentrations up to 70 mM): no inhibitory effect
fold better than the corresponding hydroxyethylamine isosteric structure as inhibitor of the HIV protease (HIV-1 protease [1]): approximately 300 fold
fold better than the corresponding phosphinic acid derivative as inhibitor of the HIV protease (HIV-1 protease [1]): ~1300 fold
IC50 (HIV-1 protease [1]): 0.7 µM
Ki (HIV-1 protease [1]): 0.214 µM
time dependent inhibition of HIV PR (HIV-1 protease [1]; time dependent assays): do not exhibit time dependent inhibition
hydration of the ketone moiety in the presence of water [2]: remains unhydrated

CC[C@H](C)[C@H](NC(=O)[C@@H]1CCCN1C(=O)C(=O)C(Cc1ccccc1)NC(=O)OCc1ccccc1)C(=O)N[C@@H](CCC(N)=O)C(=O)OC(C)(C)C (mixture of isomers) [Compound 4]
IC50 (FIV protease; read-out: FIV PR IC50): 25 µM
Ki (FIV protease; read-out: FIV PR Ki): 29 µM
Ki (HIV-1 protease [1]): 0.154 µM

COC[C@@H]1[C@@H](OC)[C@H](OC)[C@H](COC)N1C(=O)C(=O)C(Cc1ccccc1)NC(=O)OCc1ccccc1 (mixture of isomers) [Compound 12, (3S) and (3R) 3-(N-Benzyloxycarbonyl)amino-2-keto-4-phenylbutyryl-(2′(R), 5′(R)-bis(methoxymethyl]-3′(R), 4′(S)-dimethoxypyrrolidine]]
IC50 (HIV-1 protease [1]): 20 µM
Ki (HIV-1 protease [1]): 20 µM

CC(C)(C)NC(=O)C1CCCN1C(=O)C(Cc1ccccc1)NC(=O)OCc1ccccc1 (stereo not drawn) [Cbz-Phe-Pro-NBu^t] (Cbz-Phe-Pro-NHtBu; configuration not given here)
cleavage by FIV protease (FIV protease; normal assay conditions): not cleaved
cleavage by HIV protease (HIV-1 protease [1]; normal assay conditions): not cleaved

COC(=O)[C@@H]1CCCN1C(=O)C(=O)C(Cc1ccccc1)NC(=O)OC(C)(C)C (stereo partly shown) [Compound 1]
IC50 (HIV-1 protease [1]): 6 µM
Ki (HIV-1 protease [1]): 6 µM

COCC1CCC(COC)N1CC(O)C(Cc1ccccc1)NC(=O)OCc1ccccc1 [Compound 5, N-[1-Phenyl-2(S)-[(benzyloxycarbonyl)amino]-3(R)-hydroxybutan-4-[2′ (R), 5′ (R)-bis(methoxymethyl)]-pyrrolidine]
IC50 (HIV-1 protease [1]): 1800 µM

COCC1C(OC)C(OC)C(COC)N1CC(O)C(Cc1ccccc1)NC(=O)OCc1ccccc1 [Compound 6, N-[1-Phenyl-2(S)-[(benzyloxycarbonyl)amino]-3(R)-hydroxybutan-4-[2′(R), 5′(R)-bis(methoxymethyl)-3′(R), 4′(S)-dimethoxy]-pyrrolidine]
IC50 (HIV-1 protease [1]): 100 µM

COC[C@H]1CCCN1C[C@@H](O)[C@H](Cc1ccccc1)NC(=O)OCc1ccccc1 [Compound 7]
IC50 (HIV-1 protease [1]): 1600 µM

CC(C)(C)NC(=O)[C@@H]1CCCN1C[C@@H](O)[C@H](Cc1ccccc1)NC(=O)OCc1ccccc1 [Compound 8]
IC50 (HIV-1 protease [1]): 60 µM

CO[C@H]1CC(C(=O)NC(C)(C)C)N(C[C@@H](O)[C@H](Cc2ccccc2)NC(=O)OCc2ccccc2)C1 (stereo partly drawn) [Compound 9, N-(1-Phenyl-2(S)-[(benzyloxycarbonyl)amino]-3(R)-hydroxybutan-4-(tert-butylamido)-4′(S)-methoxy]-pyrrolidine]
IC50 (HIV-1 protease [1]): 17 µM

CO[C@@H]1C[C@@H](C(=O)NC(C)(C)C)N(C[C@@H](O)[C@H](Cc2ccccc2)NC(=O)OCc2ccccc2)C1 [Compound 10]
IC50 (HIV-1 protease [1]): 2.9 µM

CC(C)(C)NC(=O)[C@@H]1C[C@@H](OCc2ccccc2)CN1C[C@@H](O)[C@H](Cc1ccccc1)NC(=O)OCc1ccccc1 [Compound 11]
IC50 (HIV-1 protease [1]): 3.9 µM

CC(C)(C)NC(=O)[C@@H]1CCCN1C(=O)[C@H](O)[C@H](Cc1ccccc1)NC(=O)OCc1ccccc1 [Compound 23, (2S, 3R) and (2S, 3S) 3-(N-Benzyloxycarbonyl)amino-2-hydroxy-4-phenylbutyryl-L-prolyl-tert-butyl Amide]
IC50 (HIV-1 protease [1]): 300 µM

O=C1N(Cc2ccc(CO)cc2)[C@H](Cc2ccccc2)[C@H](O)[C@@H](O)[C@@H](Cc2ccccc2)N1Cc1ccc(CO)cc1 [DMP 323]
IC50 (HIV-1 protease [3]): 0.036 µM
Ki (HIV-1 protease [3]): 0.00027 µM

CSC[C@H](NC(=O)COc1cccc2cnccc12)C(=O)N[C@@H](Cc1ccccc1)[C@H](O)C(=O)N1CSC[C@H]1C(=O)NC(C)(C)C [KNI-272, reference compound]
Ki against HIV PR relative to compound 2 (HIV-1 protease [1]; compared with 2): almost five orders of magnitude lower

(2S, 3R) and (2S, 3S) 3-(N-Benzyloxycarbonyl)amino-2-hydroxy-4-phenylbutyryl-L-prolyl-tert-butyl Amide [Compound 24]
IC50 (HIV-1 protease [1]): 2 µM
